Results: patent US9187438B2, “Derivatives of benzothiazines, preparation thereof and application thereof as drugs” (PIERRE FABRE MEDICAMENT, priority 2009, dated 2015)

How the values were obtained:
Assay type in all cases: biochemical
[1] = target: T1, 11β-HSD1 (Homo sapiens, UniProt P28845); test: Human enzymatic activity of 11β-HSD1 from liver microsomes, cortisone to cortisol conversion, HTRF detection (inhibition %); conditions: 10^−6M inhibitor, read-out: 11β-HSD1/HTRF % inhib. (10^−6M)
T1 construct: adding 1 μg of human hepatic microsome (Xenotech); tissue Xenotech; host or cells: human liver microsomes
Description: 1) Human Enzymatic Activity of 11β-HSD1 from Liver Microsomes after Treatment with Inhibitor Compounds (Inhibition %).
The enzymatic test is based on the conversion of cortisone into cortisol by 11β-HSD1. […] A calibration curve of known cortisol concentrations is produced simultaneously under the same experimental conditions. The plates are incubated for 2 hours at 37° C. (enzymatic phase). By adding 25 μL of conjugate cortisol-d2 and of 25 μL of anti-cortisol anαtibody labeled with Eu^3+ cryptate per well, the enzymatic reaction may be stopped and after incubation of 2 hours at room temperature the formed cortisol (detection phase) may be quantified by HTRF® (CIS bio international, reference 62CO2PEC). The fluorescence measurements are conducted with a Fusion™ α(Perkin Elmer) reader. For each well, fluorescence is measured at 620 nm and at 665 nm. A ratio (λ665 nm/λ620 nm) and a specific FRET signal are calculated, with which an inhibition percentage may be determined for each concentration of evaluated inhibitor compound.

[2] = target: T1, 11β-HSD1; test: Human enzymatic activity of 11β-HSD1 from liver microsomes, [3H]cortisone to [3H]cortisol conversion, SPA (inhibition % or EC50); conditions: for inhibition at 1 µM: 10^−6M inhibitor, read-out: 11β-HSD1/SPA % inhib. (10^−6M)
Description: The enzymatic test is based on the conversion of [^3H] cortisone into [^3H] cortisol by 11β-HSD1. […] The sealed plates are centrifuged at low speed for mixing the components and then incubated for 2 hours at 37° C. (enzymatic phase). The enzymatic reaction is stopped by adding 70 μl/well of complex [10 mg/mL of yttrium silicate SPA beads associated with the protein A (GE Healthcare) and pre-incubated with an anti-cortisol monoclonal antibody (East Coast Biologics, ME)] containing 10 μM of 18β-glycerrhitinic acid. The plates are sealed and then incubated under slow orbital stirring for 2 hours at room temperature (detection phase).

[3] = target: T2, 11β-HSD2 (Homo sapiens, UniProt P80365); test: Human enzymatic activity of 11β-HSD2 from kidney microsomes, [3H]cortisol to [3H]cortisone conversion, SPA (inhibition %); conditions: 10^−5M inhibitor, read-out: 11β-HSD2/SPA % inhib. (10^−5M)
T2 construct: of human kidney microsomes (Xenotech); tissue Xenotech; host or cells: human kidney microsomes
T2 sequence (P80365 1-405): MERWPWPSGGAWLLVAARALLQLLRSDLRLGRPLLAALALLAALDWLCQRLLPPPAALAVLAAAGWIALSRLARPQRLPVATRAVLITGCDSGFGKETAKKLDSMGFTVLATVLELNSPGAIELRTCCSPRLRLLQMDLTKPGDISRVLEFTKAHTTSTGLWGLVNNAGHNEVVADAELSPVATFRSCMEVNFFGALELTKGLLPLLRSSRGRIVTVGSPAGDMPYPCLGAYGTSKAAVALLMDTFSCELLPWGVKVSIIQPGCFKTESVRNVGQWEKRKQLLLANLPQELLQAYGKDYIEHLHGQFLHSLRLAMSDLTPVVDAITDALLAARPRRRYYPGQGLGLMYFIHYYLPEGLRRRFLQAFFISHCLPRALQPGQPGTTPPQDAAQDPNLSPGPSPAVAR
Description: 3) Human Enzymatic Activity of 11β-HSD2 from Kidney Microsomes after Treatment with the Inhibitor Compounds (Inhibition %).
The enzymatic test is based on the conversion of [^3H] cortisol into [^3H] cortisone by 11β-HSD2. The enzymatic reaction is started by adding 0.75 μg (standardization of this amount in order to obtain 80% of the conversion maximum of the substrate under the experimental conditions) of human kidney microsomes (Xenotech) to wells (Optiplate™ 96-well plates, a reaction volume of 50 μL) containing 8 nM [1,2,6,7-^3H] cortisol (specific activity of 70-75 Ci/mmol, Amersham-GE Healthcare) in a 50 mM HEPES buffer (pH 7.4) with 100 mM KCl, 5 mM NaCl, 2 mM MgCl2, 1 mM NAD^+ and the inhibitor compound or the carrier (1% DMSO). The sealed plates are centrifuged at low speed in order to mix the components and then incubated for 2 hours at 37° C. (enzymatic phase). The enzymatic reaction is stopped by adding 70 μl/well of complex [10 mg/mL of yttrium silicate SPA beads associated with protein A (GE Healthcare) and pre-incubated with an anti-cortisol monoclonal antibody (East Coast Biologics, ME)] containing 10 μM of 18β-glycerrhitinic acid. The plates are sealed and then incubated under slow orbital stirring for 2 hours at room temperature (detection phase). After centrifugation, the measurements are conducted with a scintillation counter TopCount NXT (Perkin Elmer). An inhibition percentage for each evaluated compound concentration is calculated relatively to the standard enzymatic activity (carrier 1% DMSO).

T1 sequence (P28845 whole entry): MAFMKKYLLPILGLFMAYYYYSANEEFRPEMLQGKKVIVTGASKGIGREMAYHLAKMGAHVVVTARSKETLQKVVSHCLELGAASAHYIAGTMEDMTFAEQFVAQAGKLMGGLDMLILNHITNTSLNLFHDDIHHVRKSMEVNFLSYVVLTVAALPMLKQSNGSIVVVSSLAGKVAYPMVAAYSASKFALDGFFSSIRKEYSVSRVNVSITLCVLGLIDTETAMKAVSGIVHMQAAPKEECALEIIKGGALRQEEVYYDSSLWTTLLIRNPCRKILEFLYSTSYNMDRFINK

Compound | inhibition at 1 µM [1] [%] | EC50 [2] [nM] | inhibition at 1 µM [2] [%] | inhibition at 10 µM [3] [%]
CCN1C(C(=O)c2ccc3ccccc3c2)=C(O)c2ccccc2S1(=O)=O [Example 9, (4-hydroxy-2-ethyl-1,1-dioxo-2H-benzo[e][1,2]thiazin-3-yl)(naphthalen-2-yl)methanone] | 98 | 60 | 88 | 5
CCN1C(C(=O)c2ccc3ccccc3c2)=C(O)c2ccc(F)cc2S1(=O)=O [Example 18, (7-Fluoro-4-hydroxy-2-ethyl-1,1-dioxo-2H-benzo[e][1,2]thiazin-3-yl)(naphthalen-2-yl)methanone] | 100 | 69 | 91 | 25
CN1C(C(=O)c2ccc(Cl)c(Cl)c2)=C(O)c2ccccc2S1(=O)=O [Example 123, (4-hydroxy-2-methyl-1,1-dioxo-2H-benzo[e][1,2]thiazin-3-yl) (3,4-dichlorophenyl)methanone] | 100 | 43 | 93 | 31
Cc1ccc(C(=O)C2=C(O)c3ccccc3S(=O)(=O)N2C)cc1 [Example 3, (4-hydroxy-2-methyl-2H-1,1-dioxo-benzo[e][1,2]thiazin-3-yl) (4-methylphenyl)methanone] | 99 | 64 | 93 | 33
CC(=O)OC1=C(C(=O)c2ccc3ccccc3c2)N(C)S(=O)(=O)c2ccccc21 [Example 46, Acetic acid 2-methyl-3-(naphthalene-2-carbonyl)-1,1-dioxo-2H-benzo[e][1,2]thiazin-4-yl ester] | 100 | 72 | 91 | 63

The next compounds have a lower EC50 [2] than those just listed; values first:

inhibition at 1 µM [1] [%] | EC50 [2] [nM] | inhibition at 1 µM [2] [%] | inhibition at 10 µM [3] [%] | Compound
99 | 16 | 97 | 42 | CN1C(C(=O)c2ccc3ccccc3c2)=C(O)c2ccccc2S1(=O)=O [Example 1, (4-Hydroxy-2-methyl-1,1-dioxo-2H-benzo[e][1,2]thiazin-3-yl)(naphthalen-2-yl)methanone]
100 | 27 | 97 | 71 | CN1C(C(=O)c2ccc3ccccc3c2)=C(OC(=O)COc2ccccc2)c2ccccc2S1(=O)=O [Example 54, Phenoxyacetic acid 2-methyl-3-(naphthalene-2-ylcarbonyl)-1,1-dioxo-2H-benzo[e][1,2]thiazin-4-yl ester]
100 | 11 | 99 | 61 | CN1C(C(=O)c2ccc3ccccc3c2)=C(O)c2ccc(F)cc2S1(=O)=O [Example 17, (7-Fluoro-4-hydroxy-2-methyl-1,1-dioxo-2H-benzo[e][1,2]thiazin-3-yl)(naphthalen-2-yl)methanone]
100 | 21 | 87 |  | CN1C(C(=O)c2cccc(Br)c2)=C(O)c2ccccc2S1(=O)=O [Example 142, (3-Bromo-phenyl)-(4-hydroxy-2-methyl-1,1-dioxo-1,2-dihydro-2H-benzo[e][1,2]thiazin-3-yl)-methanone]
